Data as given in patent EP4670723A1, “PI[…] USE IN THE TREATMENT OF OSTE[…] NON-HUMAN MAMMALS” (Vetbiolix, priority 2024, dated 2025).
Read-outs that look alike come from different tables or passages of the source.

Assays:
[1] = tested on: dogs with osteoarthritis (OA); assay: multicentric, non-comparative, randomized proof of concept study, 90 days oral treatment of dogs with osteoarthritis; format: in vivo, dog; settings: for Activity: Dog
Procedure: This was a multicentric, non-comparative, randomized proof of concept study in which 15 dogs with osteoarthritis (OA) were treated with piclidenosone (VBX1000) for 90 days.
[…] Two intermediate visits were included for clinical examination and for calculating OA scores.
The primary objective of this study was to assess the efficacy of piclidenosone to reduce OA symptoms severity after 90 days of treatment. For that purpose, OA symptoms and motility were scored by the owner using Liverpool Osteoarthritis in Dogs (LOAD) questionnaire at Day-0, Day-30, Day-60 and Day-90. […]
• Inclusion criteria • ∘ The owner approved and signed the informed consent form prior to the participation of his/her dog in the study; • ∘ Dog older than 18 months; • ∘ Dog with a Body Condition score lower than 8 (on a 9 point-scale); • ∘ Dog with a symptomatic unifocal or multifocal osteoarthritis, characterized by the presence of osteophyte on at least one site on radiographic views; • ∘ LOAD mobility total score of ≥ 11 at visit V2 (Day 0). • Exclusion criteria • ∘ Animals intended for breeding or known to be pregnant or lactating; • ∘ Dog with severe OA which requires concomitant treatment; • ∘ Presence of complete cranial cruciate ligament rupture; • ∘ Breeds at risk of MDR1 gene mutation (MDR1 genetic test required before screening of a dog from known affected breed: Collie, Border Collie, Australian and English Shepherd, German Shepherd, Long-Haired Whippet, Shetland Sheepdog); • ∘ History of orthopaedic surgery including complete cranial cruciate ligament rupture surgically treated with Tibial Tuberosity Advancement (TTA) or Tibial Plateau Leveling Osteotomy (TPLO) or elbow debridement within 3 months prior to inclusion; • ∘ Presence of musculoskeletal lesions (e.g., glycogenosis, primary muscular dystrophy) or untreated neoplasia prior to inclusion; • ∘ Presence of concurrent systemic disease such as neurologic, hepatic, renal or cardiac disease; • ∘ Dog under physical therapy (including acupuncture) for orthopaedic indication unless a 1-week wash-out period is applied prior to visit V1 (between D-21 and D-14); • ∘ Dog treated with methotrexate; • ∘ Dog treated with nonsteroidal anti-inflammatory drugs unless a 2-weeks wash-out period is applied prior to visit V1 (between D-21 and D-14); • ∘ Dog that received mavacoxib or enflicoxib within 3 months prior to visit V1 (between D-21 and D-14); • ∘ Dog treated with short-acting corticosteroids (i.e., hydrocortisone) unless a 2-weeks wash-out period is applied prior to visit V1 (between D-21 and D-14); • ∘ Dog treated with intermediate-acting corticosteroids (i.e., prednisone, prednisolone, methylprednisolone) unless a 4-weeks wash-out period is applied prior to visit V1 (between D-21 and D-14); • ∘ Dog treated with long-acting corticosteroids (i.e., dexamethasone) unless a 12-weeks wash-out period is applied prior to visit V1 (between D-21 and D-14); • ∘ Dog treated with any intra-articular injection in the joint under study within 2 months prior to visit V1 (between D-21 and D-14); • ∘ Dog treated with a subcutaneous injection of bedinvetmab unless a 4-week wash-out periods is applied prior to visit V1 (between D-21 and D-14); • ∘ Dog treated with OA modifying diet and/or food supplements (i.e., glycosaminoglycans, glucosamine and chondroitin sulphate or other) unless its administration has been regular during the month preceding visit V1 (between D-21 and D-14) and will be continued during the study duration; • ∘ Dog unable to walk on a leash. […]

[2] = tested on: dogs with osteoarthritis (OA); assay: as above; format: in vivo, dog
[3] = tested on: human patients; settings: cited from earlier work; for Activity: Human
[4] = tested on: monoidoacetate (MIA) experimental rat models; settings: cited from earlier work
[5] = tested on: patients with osteoarthritis of the knee; settings: 1000 µg (14.5 µg/kg) twice daily orally for 12 weeks; trial discontinued; cited from earlier work
[6] = 100 µg/kg bid, 90 days vs baseline
[7] = oral, 100 µg/kg body weight twice a day

CNC(=O)[C@H]1O[C@@H](n2cnc3c(NCc4cccc(I)c4)ncnc32)[C@H](O)[C@@H]1O [piclidenoson, 1-Deoxy-1-[6-[[(3-iodophenyl)methyl]amino]-9H-purin-9-yl]-N-methyl-β-D-ribofuranuronamide]
pain score (Visual Analog Score or VAS) ([1]; 100 µg/kg bid group, 90-day treatment period): not significantly improved
proportion of patient with low NRS1 (lameness score) [1, 6]: non-significant increase
evidence for efficacy in the treatment of osteoarthritis in dogs ([1]; 100 µg/kg twice a day orally for 90 days): do not provide evidence for efficacy
proportion of patient experiencing clinically meaningful improvement of LOAD score ([1]; 500 µg/kg bid group as compared to 100 µg/kg bid, decrease in LOAD score ≥4, Day-90 vs inclusion): higher
pain score (Visual Analog Score or VAS) ([1]; 500 µg/kg bid group, statistical significance from Day-60 up to end of treatment): significant decrease
change in LOAD score vs that obtained after ligament surgery in dogs with ligament rupture ([1]; 500 µg/kg bid, after 90 days): comparable
Activity ([1]; Bid Dose 100 µg/kg): No
Activity ([1]; Bid Dose 500 µg/kg): Yes
proportion of patients showing VAS improvement (Δ≤-1) ([1]; end of treatment period, 500 µg/kg bid group as compared to 100 µg/kg bid group): superior
temporal evolution of mean LOAD score ([1]; group 1, 100 µg/kg bid, observed at Day-30, totally disappeared at Day-60 and Day-90): transient decrease
temporal evolution of mean LOAD score ([1]; group 2, 500 µg/kg bid, statistical significance from Day-60 to end of treatment): time-dependent decrease
Active Dose in dog ([1]; proof-of-concept trial in dog with osteoarthritis, bid): 0.5 mg/kg
clinical symptoms of osteoarthritis in dog ([1]; repeated oral administration at dose ≥ 500 µg/kg bid): improves clinical symptoms
tolerance ([1]; throughout the study, 100 and 500 µg/kg bid for 90 days): well tolerated with no treatment related SAE and no death
proportion of patient with low NRS2 (pain score) [2, 6]: non-significant increase
LOAD score ([2]; 500 µg/kg bid oral, Day-90, N=9, baseline 22.9±7.2 at Day-0, p<0.01, primary endpoint met): 14.9±10.6
proportion of patients with low scores, NRS2 (pain score) ([2]; 500 µg/kg bid, 90 days vs baseline, p<0.05 Fisher exact test): reached statistical significance
proportion of patients with low scores, NRS1 (lameness score) ([2]; 500 µg/kg bid, 90 days vs baseline, statistical significance): not for NRS1
Activity ([3]; Bid Dose 2000 µg (29 µg/kg)): Yes
Activity ([3]; Bid Dose 4000 µg (57 µg/kg)): Yes
Active Dose in Human ([3]; from clinical Phase 2 trials, assuming body weight of 70 kg): 0.029 mg/kg
Activity ([4]; Rat, Bid Dose 100 µg/kg): Yes
NF-kappaB signaling pathway [4, 7]: deregulated
apoptosis of inflammatory cells [4, 7]: induced apoptosis
cartilage protection [4, 7]: cartilage protective agent
efficacy [5]: lack of efficacy
